Values of other authors, collected in patent US11110072B2, “Broad spectrum pharmacological composition for treatment of various infections and diseases and methods of use” (Greyfer Innova Pharma, LLC, priority 2013, dated 2021).

Experiments:
[1] = after oral administration
[2] = even at high concentrations

Compound: O=C(O)CC(O)(CC(=O)O)C(=O)O [Citric acid, 2-hydroxytricarboxylic acid]
- excreted unchanged in urine [1]: less than 1%
- effect in contact with skin [2]: not injurious in contact with skin
